This data set can be described thus: gradient 5% acetonitrile 3 min, to 50% in 2 min, to 85% in 15 min, held 3 min, 100 µL/min. As to conditions: column: Zorbax Extend-C18 2.1 x 50 mm; eluents: water / acetonitrile, 0.1% formic acid. In short, it runs like this: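 Each retention time is based on an adduct peak selected computationally and verified by manual inspection. Measurements used HPLC–quadrupole time-of-flight mass spectrometry in positive and negative ionization mode on mixtures of ~100 pure standards. Chromatography ran on a Zorbax Extend-C18 column (2.1 × 50 mm, 1.8 μm) at 100 μL/min with water and acetonitrile, each containing 0.1% formic acid, and dead and dwell volumes of 40 μL and 900 μL.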
`COc1ccccc1CNC(=O)Cn1c(=O)c2cc(C3CC3)nn2c2ncccc21` displayed an RP-LC retention time of 760 s.
With `CCOC(C)C(/C=N/NC(N)=S)=N/NC(N)=S` (centres undefined), the RP-LC retention time turned out to be 654 s.
With `O=C(NC1CC1)c1c2c(nc3ccc(F)cc13)CCCC2`, the RP-LC retention time was 610 s.
Compound `CN(C)CCNC(=O)COc1ccccc1-c1nnc(-c2ccccc2)o1` displayed an RP-LC retention time of 659 s.
For the compound `CCOc1ccc(-c2noc(Cn3cnc4c(oc5ccccc54)c3=O)n2)cc1OC`, the RP-LC retention time amounted to 916 s.
For the compound `O=C(NCCOc1ccc(-c2cccs2)nn1)NCc1ccccc1`, the RP-LC retention time came to 734 s.
Regarding `Cc1ccc(S(=O)(=O)N2CCC(n3cnnc3C(C)C)CC2)cc1F`, the RP-LC retention time is 756 s.
To `CCOc1ccc(-c2csc(Cc3nc(-c4ccc(OCC)cc4)no3)n2)cc1` belongs 1300 s; to `Cn1cc(-c2nc(C(=O)NCc3ccc(C(F)(F)F)cc3)cs2)c2cccnc21`, 1040 s; to `Cc1cc(C)c(C)c(S(=O)(=O)NCCc2cn(CC(C)C)c3ncccc23)c1C`, 1120 s.
Regarding `COCCn1nc2n(c1=O)CCN(C(=O)c1ccco1)CC2`, the RP-LC retention time was 585 s.
For the compound `COc1ccc(N2CC(c3nc(-c4cccc(C(F)(F)F)c4)no3)CC2=O)cc1OC` (centres undefined), the RP-LC retention time is 966 s.
Turning to `COc1cc(-c2nc3nc(C)cc(C)n3c2Nc2ccc(Cl)cc2)ccc1O`, the RP-LC retention time was 656 s.
For the compound `O=C(NCCCN1CCCC1=O)c1nc2ccccn2c1-c1ccc(F)cc1`, the RP-LC retention time is 656 s.
As for `CCc1nnc2nc(N3CCN(C(=O)COc4ccc(OC)cc4)CC3)cc(C)n12`, the RP-LC retention time was found to be 613 s.
For the compound `Cc1ccc(NC(=O)c2c(C)oc3nc(C)nc(N4CCCC4)c23)cc1`, the RP-LC retention time is 774 s.
In turn, `COc1ccc(-n2cc(C(=O)OCCc3ccccn3)c3ccccc3c2=O)cc1` came in with an RP-LC retention time of 714 s.
In turn, `Cc1ccc(-c2nnc(Cc3nc(-c4ccc(OC(C)C)cc4)no3)o2)cc1C` came in with an RP-LC retention time of 1240 s.
`O=C(CCn1nnc2cc(-c3noc(COc4ccc(F)cc4)n3)ccc21)N1CCCC1` returned an RP-LC retention time of 877 s.
Compound `Cc1nc(C(=O)Nc2ccc(N3CCOCC3)cc2)c(C)n1C1CCN(C)CC1` displayed an RP-LC retention time of 555 s.
`Cc1ccc(-c2cn(CC(=O)N3CCN(c4cccc(C)c4)CC3)c(=O)o2)cc1` showed an RP-LC retention time of 1020 s.
Take `CCOc1cc(C(=O)Nc2cc(-c3cn4cccnc4n3)ccc2C)cc(OCC)c1OCC`: the RP-LC retention time was 780 s.
`COC(=O)c1nnn(-c2cccc(C)c2C)c1C(=O)OC` returned an RP-LC retention time of 878 s.
`O=C(NCC(F)(F)F)C1CCN(C(=O)Cc2noc3ccccc23)CC1` displayed an RP-LC retention time of 687 s.
For the compound `COc1cc(C2OC(c3cccnc3)=NN2C(C)=O)cc(OC)c1OC` (centres undefined), the RP-LC retention time was found to be 700 s.
For `COc1cccc(CC(=O)N2CCc3nc(-c4ccc(Cl)cc4)ncc3C2)c1`, the RP-LC retention time was 1050 s.
`Cc1cc(F)ccc1NC(=O)C1CCCN(S(=O)(=O)c2c[nH]c(C(=O)N3CCCCCC3)c2)C1` (centres undefined): the RP-LC retention time stood at 857 s.
For `Cn1c(C(=O)NCc2cccc(F)c2)cc2ccncc21` the value was 609 s; for `CN(C(=O)c1ccc2c(c1)OCO2)C1CCc2nn(CC3CC3)c(=O)n2CC1` (centres undefined), 670 s.
For `CCn1ncn2cc(S(=O)(=O)Nc3ccc(C)c(F)c3)cc2c1=O` the value was 909 s; for `COc1cc([C@@H]2c3cc4c(cc3[C@H](O)[C@@H](CO)[C@@H]2C(=O)NCc2ccc(C)o2)OCO4)cc(OC)c1OC`, 674 s.
As for `CN1C(=O)[C@H]2CN(Cc3ccc(Cl)cc3)C[C@H]2C1=O`, the RP-LC retention time was 598 s.
Compound `O=C(CN1C(=O)CSc2cccn2-c2ccccc21)NCCC1=CCCCC1` registered an RP-LC retention time of 1030 s.
As for `Cc1nc2cccnc2n1-c1cccc(C(=O)N2CCN(c3ccccn3)CC2)c1`, the RP-LC retention time turned out to be 568 s.
For `COCCc1noc(C2CN(S(=O)(=O)Cc3ccccc3)C2)n1` the value was 780 s; for `CCCNS(=O)(=O)c1cc2c(cc1C)CCN2C(C)=O`, 641 s.
For `Cc1cc(C)n(Cc2ccc(C(=O)N3CCN(c4cc(=O)n(C(C)C)c(=O)n4C(C)C)CC3)o2)n1` the value was 772 s; for `CC(CCc1ccccc1)NC(C)C(O)c1ccc(O)cc1` (centres undefined), 712 s; for `CN1CCN(c2ccc(NC(=O)c3ccc(Br)cc3)c(C(=O)O)c2)CC1`, 653 s.
As to `Cn1cc(-c2cc3n(n2)CCCN3C(=O)CCC(=O)NCCC2=CCCCC2)c2ccccc21`, the RP-LC retention time came to 920 s.
Take `O=C(NCc1ccccc1F)C1CCCN(c2cnc3nccnc3c2)C1` (centres undefined): the RP-LC retention time was 680 s.
Take `Cc1cc(C)c(NC(=O)Cn2nc3c4cccc(C)c4ncn3c2=O)c(C)c1`: the RP-LC retention time is 679 s.
To `CCOC(=O)c1noc2ncnc(Nc3ccc(C)c(C)c3)c12` belongs 1070 s; to `COc1ccc(-n2nc(C(=O)N3CCN(c4ccccn4)CC3)c3c4ccccc4n(C)c3c2=O)cc1`, 676 s; to `C=CCn1c(=O)c2cnc(Nc3ccc(N4CCN(C)CC4)cc3)nc2n1-c1cccc(C(C)(C)O)n1`, 644 s.
As for `CC1=C(c2ccc(F)cc2)S(=O)(=O)N=C1N1CCC(NC(=O)CCC(C)C)CC1`, the RP-LC retention time was 844 s.
`Cc1ccc(C)c(NC(=O)C2CCCN(c3nnc(C)c4c(C)n(-c5ccccc5)nc34)C2)c1` (centres undefined) had an RP-LC retention time of 776 s.
Consider `Cc1cc(-c2nnc(-c3ccc(F)cc3)o2)c(C)n1CC(=O)Nc1ccccc1`, for which the RP-LC retention time amounted to 977 s.
`Cc1cccc(S(=O)(=O)Nc2cccn3ncnc23)c1` showed an RP-LC retention time of 729 s.
In turn, `CCn1nc(C)c(CNC(=O)Nc2cccc(C(=O)OC)c2)c1C` had an RP-LC retention time of 663 s.
The compound `COc1ccc(C(=O)NC2(c3nc(-c4ccncc4)no3)CCCCC2)cc1OC` displayed an RP-LC retention time of 827 s.
The compound `O=C(NC1CCCC1)C1CCCN(c2ccc3cc(S(=O)(=O)N4CCCCC4)ccc3n2)C1` (centres undefined) yielded an RP-LC retention time of 781 s.
Turning to `COc1ccc(NC(=O)Cc2nnc3ccc(C(=O)Nc4ccccc4)cn23)cc1`, the RP-LC retention time was determined as 749 s.
To `COc1ccc(Cl)cc1NC(=O)NCCCn1c(C(F)(F)F)nc2cccnc21` belongs 890 s; to `Nc1nc(N2CCN(C3CCCCC3)CC2)ncc1C(=O)Nc1ccccc1`, 624 s.
`CCCN(C)c1nccn2c(=O)n(CC(=O)Nc3ccc(C)cc3Cl)nc12` gave an RP-LC retention time of 736 s.
In turn, `COCc1nc(C2CCN(S(=O)(=O)Cc3ccccc3)C2)no1` (centres undefined) showed an RP-LC retention time of 795 s.
For `Cc1noc(CNC(=O)C2CCN(C(=O)c3ccc4ncsc4c3)CC2)n1` the value was 574 s; for `CCN1C(=O)c2cc(S(=O)(=O)Nc3cc(F)ccc3F)ccc2Oc2cccnc21`, 980 s; for `O=C(CCc1cccc2[nH]ccc12)Nc1ccc(N2CCOCC2)cc1`, 845 s.
For the compound `CCOC(=O)O[C@]1(C(=O)OCCl)CC[C@H]2[C@@H]3CCC4=CC(=O)C=C[C@]4(C)[C@H]3[C@@H](O)C[C@@]21C`, the RP-LC retention time worked out at 1150 s.
For the compound `Cc1ccc(NC(=O)N2CCC3(CC2)NC(=O)c2cc(F)ccc2N3C)cc1C`, the RP-LC retention time amounted to 832 s.
For `CCNc1cc(N2CCC(CCC(=O)NCC(C)C)CC2)ncn1`, the RP-LC retention time came out at 602 s.
For the compound `COc1ccc(NC(=O)c2nnc(CSCC(=O)NCCc3c[nH]c4ccccc34)s2)cc1`, the RP-LC retention time stood at 859 s.
In turn, `CCCCN1C(=O)C(NC(=O)CCc2ccccc2)(C(F)(F)F)C(C(=O)OC)=C1C` (centres undefined) showed an RP-LC retention time of 1030 s.
For `COc1ccc(-n2nnc(C(=O)O)c2-c2ccccn2)cc1` the value was 654 s; for `Cc1cnc(C2CC2)n1CCNS(=O)(=O)c1cccc(F)c1`, 605 s.
To `CCn1nc(C)c(CCNC(=O)Nc2ccccc2C(F)(F)F)c1C` belongs 672 s; to `Cn1cc(CN2CCC(C(=O)NCCCN3CCCCC3)CC2)c2cc(Cl)ccc21`, 586 s; to `Cc1ccc(NC(=O)Nc2ccc3nnc(C)n3c2)c(C)c1`, 695 s.
With `O=C(NCCCn1c(C(F)(F)F)nc2cccnc21)Nc1ccccc1`, the RP-LC retention time stood at 776 s.
As to `COc1ccc(NC(=O)N2CC(N(C3CCOCC3)S(C)(=O)=O)C2)cc1F`, the RP-LC retention time was found to be 685 s.
`Cc1nnc(NC(=O)CNC(=O)c2ccc(=O)[nH]c2)s1` showed an RP-LC retention time of 520 s.
`CCn1cc(-c2ccc(F)cc2)cc1C(=O)N1CCC2(CC1)OCCO2` gave an RP-LC retention time of 963 s.
For the compound `CCc1cc(=O)n(CC(=O)NCc2cccc(OC)c2)c(N)n1`, the RP-LC retention time was determined as 584 s.
The compound `CCN1CCn2cc(S(=O)(=O)NCc3ccccc3Cl)cc2C1=O` showed an RP-LC retention time of 713 s.
For `COc1ccc(C(=O)N2CCC3(C2)C(=O)Nc2ccccc23)cc1` (centres undefined) the value was 683 s.
`O=C(Nc1cccc(F)c1)c1c(O)c2cccnc2n(-c2ccc(F)cc2)c1=O`: the RP-LC retention time is 1250 s.
Regarding `Cc1sc2ncnc(N3CCCC(C)C3)c2c1C(=O)Nc1ccc(Br)cc1` (centres undefined), the RP-LC retention time was found to be 1310 s.

The values are drawn from the METLIN SMRT retention time set (Domingo-Almenara et al. 2019).
